The values below come from patent US8362227B2, “Detection of clostridium difficile” (Mayo Foundation for Medical Education and Research, priority 2008, dated 2013).

For the assay, the system named is C. difficile culture positive isolates. The assay is described as follows: Agar dilution MIC testing of anaerobes (moxifloxicin susceptibility). Type of assay: cell-based, Clostridium difficile. The following applies: for Susceptibility to Moxifloxicin, I = 4 (number of specimens): I = intermediate; for Susceptibility to Moxifloxicin, I = 4 (number of specimens) / Susceptibility to Moxifloxicin, R > 8 (number of specimens) / Susceptibility to Moxifloxicin, S ≦ 2 (number of specimens): agar dilution; for Susceptibility to Moxifloxicin, R > 8 (number of specimens): R = resistant; for Susceptibility to Moxifloxicin, S ≦ 2 (number of specimens): S = susceptible. The procedure:
Moxifloxicin susceptibility testing by agar dilution was performed on all C. difficile culture positive isolates. Growth from subculture plates was suspended in pre-reduced Schaedler's broth to McFarland 0.5 turbidity. A Steers replicator seed block was used to inoculate the moxifloxicin plate from lowest to highest dilution. The inoculated media was incubated under anaerobic conditions for 48 hours before endpoint determination was read. The testing was performed and interpreted as defined in CLSI document M11-A7.
For orientation: Agar dilution tests growth on a series of plates holding different concentrations.

Setting [1] is: LIGHTCYCLER PCR bp deletions demonstrated in tcdC.
[2] abbreviates: LIGHTCYCLER PCR no deletions demonstrated.

Turning to `COc1c(N2C[C@@H]3CCCN[C@@H]3C2)c(F)cc2c(=O)c(C(=O)O)cn(C3CC3)c12` [Moxifloxicin], the “specimens with tcdC gene deletions showing resistance to moxifloxicin” value (13 specimens with the tcdC gene deletions) was determined as 46%. Also, the “Susceptibility to Moxifloxicin, I = 4 (number of specimens)” value by setting is: under setting [1], 0; under setting [2], 2. For the same compound, the “Susceptibility to Moxifloxicin, R > 8 (number of specimens)” value runs as follows: under setting [1], 6; under setting [2], 7. Further, the “Susceptibility to Moxifloxicin, S ≦ 2 (number of specimens)” value was found to be 7 under setting [1] and 20 under setting [2]. Further, the “Susceptibility to Moxifloxicin, I = 4 (number of isolates)” value is 2 (Total, all 49 C. difficile culture positive isolates, intermediate at 4 μg/mL) and “two” (Total, all 49 C. difficile culture positive isolates, intermediate at 4 μg/mL, listed as moxifloxicin). For the same compound, the “Susceptibility to Moxifloxicin, R > 8 (number of isolates)” value (Total, all 49 C. difficile culture positive isolates, resistant) is recorded as 13. Further, the “Susceptibility to Moxifloxicin, S ≦ 2 (number of isolates)” value is on record as 32 (Total, all 49 C. difficile culture positive isolates, susceptible at ≦2 μg/mL) and “Thirty-two” (Total, all 49 C. difficile culture positive isolates, susceptible at ≦2 μg/mL, listed as moxifloxicin). Besides, the “culture positive isolates intermediate to moxifloxicin” value (intermediate at 4 μg/mL, 49 C. difficile culture positive isolates) is 4%. Further, the “culture positive isolates resistant to moxifloxicin” value (resistant at ≧8 μg/mL, 49 C. difficile culture positive isolates) was determined as 26%. Besides, the “culture positive isolates susceptible to moxifloxicin” value (susceptible at ≦2 μg/mL, 49 C. difficile culture positive isolates) is listed as 65%.
